PMC10611828 (European Journal of Nuclear Medicine and Molecular Imaging, 2023)
Read-outs that look alike come from different tables or passages of the source.

Columns and labels:
[1] = Stability in mouse serum at 37 °C (radio-HPLC); format: in vitro ADME; conditions: read-out: intact radiolabeled ligand (RCP)
Description: (§1) The ^177Lu-labeled peptides were incubated in 300-μL phosphate buffered saline (PBS; Gibco, ThermoFisher, The Netherlands) at 37 °C, and their stability was verified after 1, 4, 24, 48, and 72 h by radio-HPLC (Supplementary Fig. 2). The stability in serum was determined by incubating the radiolabeled compounds into 300 μL of mouse serum (Invitrogen, USA) or human serum (Sigma Aldrich, USA) at 37 °C (Supplementary Fig. 3, 4). At each time point post-incubation, 35 μL of the mixture was added to an Eppendorf tube, and the proteins were precipitated by adding an equal volume of acetonitrile. The tubes were centrifuged at 16,000 rpm, 4 °C for 20 min, and the stability was monitored by radio-HPLC, expressed as the RCP at the different time points.

[2] = Stability in human serum at 37 °C (radio-HPLC); format: in vitro ADME; conditions: read-out: intact radiolabeled ligand (RCP)
Description: as §1

[3] = In vivo biodistribution and clearance in PC-3 tumor-bearing mice; conditions: male, NMRI-Foxn1 nu/nu, mouse, iv, total radioactivity, i.v.; for tissue uptake at 1 h: 1 h p.i.; for tissue uptake at 4 h: 4 h p.i.; for tissue uptake at 24 h: 24 h p.i.; for tissue uptake at 48 h: 48 h p.i.; for tissue uptake at 72 h: 72 h p.i.
Description: All animal experiments were approved by the Animal Welfare Committee of the Erasmus MC, and all experiments were conducted in accordance to institutional guidelines.
At 1, 4, 24, 48, and 72 h post-injection (p.i.), animals were sedated using 2.5% isoflurane in oxygen, and blood was collected via the orbital vein, after which the animals were euthanized using cervical dislocation. Subsequently, the following organs were collected; the tail, tumor, spleen, liver, pancreas, small intestine, colon, coecum, kidneys, lung, and muscle. […] The collected tumor and organs were weighed, and the radioactivity was measured in the gamma counter. The biodistribution data are expressed as percentage injected dose per gram of tissue (% ID/g). Animal numbers per group are indicated in Supplementary Table 1 and 2.
Statistical analysis was performed using Graphpad Prism version 9.0.0. Outliers were identified using the ROUT method with a Q value of 1%. IC50 curves were determined using non-linear regression.

[4] = PC-3 tumor, read-out: % uptake PC-3 tumor
[5] = gastrointestinal tract, read-out: % uptake gastrointestinal tract
[6] = kidney, read-out: % uptake kidney
[7] = liver, read-out: % uptake liver
[8] = muscle, read-out: % uptake muscle
[9] = pancreas, read-out: % uptake pancreas
[10] = prostate, read-out: % uptake prostate
[11] = spleen, read-out: % uptake spleen

SMILES: CC(C)C[C@H](NC(=O)C[C@H](O)[C@H](CC(C)C)NC(=O)[C@H](Cc1c[nH]cn1)NC(=O)CNC(=O)[C@@H](NC(=O)[C@H](C)NC(=O)[C@H](Cc1c[nH]c2ccccc12)NC(=O)[C@H](CCC(N)=O)NC(=O)[C@@H](Cc1ccccc1)NC(=O)CN1CCC(NC(=O)CN2CCN(CC(=O)O)CCN(CC(=O)O)CCN(CC(=O)O)CC2)CC1)C(C)C)C(N)=O [[^177Lu]Lu-RM2, metal not drawn]
- remaining at 1 h ([1]; 1 h): 90.9 ± 0.5%
- remaining at 24 h ([1]; 24 h): 29.6 ± 1.2%
- remaining at 48 h ([1]; 48 h): 17.1 ± 3.5%
- remaining at 72 h ([1]; 72 h): 5.3 ± 0.9%
- remaining at 1 h ([2]; 1 h): 96.7 ± 0.7%
- remaining at 4 h ([2]; 4 h): 95.5 ± 1.1%
- remaining at 24 h ([2]; 24 h): 94.9 ± 1.5%
- remaining at 48 h ([2]; 48 h): 92.3 ± 1.9%
- remaining at 72 h ([2]; 72 h): 88.4 ± 0.6%
- tissue uptake at 1 h [3, 4]: 9.27 ± 1.81 %ID/g
- tissue uptake at 4 h [3, 4]: 9.14 ± 0.94 %ID/g
- tissue uptake at 24 h [3, 4]: 7.32 %ID/g
- tissue uptake at 48 h [3, 4]: 5.47 %ID/g
- tissue uptake at 72 h [3, 4]: 2.97 %ID/g
- tissue uptake at 1 h ([3]; blood, read-out: % uptake blood): 0.3 %ID/g
- tissue uptake at 1 h [3, 5]: 1.75 %ID/g
- tissue uptake at 4 h [3, 5]: 0.56 %ID/g
- tissue uptake at 24 h [3, 5]: 0.05 %ID/g
- tissue uptake at 48 h [3, 5]: 0.03 %ID/g
- tissue uptake at 72 h [3, 5]: 0.01 %ID/g
- tissue uptake at 1 h [3, 6]: 3 %ID/g
- tissue uptake at 4 h [3, 6]: 1.69 %ID/g
- tissue uptake at 24 h [3, 6]: 0.63 %ID/g
- tissue uptake at 48 h [3, 6]: 0.26 %ID/g
- tissue uptake at 72 h [3, 6]: 0.12 %ID/g
- tissue uptake at 1 h [3, 7]: 0.2 %ID/g
- tissue uptake at 4 h [3, 7]: 0.09 %ID/g
- tissue uptake at 24 h [3, 7]: 0.04 %ID/g
- tissue uptake at 48 h [3, 7]: 0.03 %ID/g
- tissue uptake at 72 h [3, 7]: 0.02 %ID/g
- tissue uptake at 1 h ([3]; lung, read-out: % uptake lungs): 0.3 %ID/g
- tissue uptake at 4 h ([3]; lung, read-out: % uptake lungs): 0.04 %ID/g
- tissue uptake at 24 h ([3]; lung, read-out: % uptake lungs): 0.02 %ID/g
- tissue uptake at 48 h ([3]; lung, read-out: % uptake lungs): 0.01 %ID/g
- tissue uptake at 72 h ([3]; lung, read-out: % uptake lungs): 0.01 %ID/g
- tissue uptake at 1 h [3, 8]: 0.06 %ID/g
- tissue uptake at 4 h [3, 8]: 0.01 %ID/g
- tissue uptake at 24 h [3, 8]: 0.01 %ID/g
- tissue uptake at 1 h [3, 9]: 14.4 ± 2.56 %ID/g
- tissue uptake at 4 h [3, 9]: 2.07 ± 0.3 %ID/g
- tissue uptake at 24 h [3, 9]: 0.25 %ID/g
- tissue uptake at 48 h [3, 9]: 0.14 %ID/g
- tissue uptake at 72 h [3, 9]: 0.05 %ID/g
- tissue uptake at 1 h [3, 10]: 1.08 %ID/g
- tissue uptake at 4 h [3, 10]: 0.03 %ID/g
- tissue uptake at 24 h [3, 10]: 0.03 %ID/g
- tissue uptake at 48 h [3, 10]: 0.02 %ID/g
- tissue uptake at 72 h [3, 10]: 0.01 %ID/g
- tissue uptake at 1 h [3, 11]: 0.19 %ID/g
- tissue uptake at 4 h [3, 11]: 0.06 %ID/g
- tissue uptake at 24 h [3, 11]: 0.04 %ID/g
- tissue uptake at 48 h [3, 11]: 0.03 %ID/g
- tissue uptake at 72 h [3, 11]: 0.02 %ID/g
